Reference: patent US20240091230A1, “USE OF KRAS G12C INHIBITOR IN TREATING CANCERS” (AMGEN INC., priority 2021, published 2024)

Test system: locally advanced or metastatic KRAS G12C mutant NSCLC
Test: CodeBreaK 100 phase 2 portion, sotorasib monotherapy 960 mg QD (NCT03600883)
Format: in vivo, human
Settings: among 46 confirmed responders; cutoff Sep. 1, 2020
Protocol: As discussed above, in phase 2 of the CodeBreaK 100 Trial (ClinicalTrials.gov identifier: NCT03600883) subjects with locally advanced or metastatic KRAS G12C mutant NSCLC were treated with the compound of Formula I as monotherapy at 960 mg QD.
• Subject has provided informed consent prior to initiation of any study specific activities/procedures. • Men or women: 18 years of age or older. • Pathologically documented, locally-advanced or metastatic malignancy with KRAS G1 2C 10 mutation identified through molecular testing. For phase 2. the mutation was confirmed by central testing prior to enrollment. • Subjects must have progressed after receiving anti-PD-1 or anti-PD-L1 immunotherapy (unless contraindicated) AND/OR platinum-based combination chemotherapy AND targeted therapy if actionable oncogenic driver mutations were identified (i.e., EGFR, ALK, and ROS1). Subjects must have received no more than 3 prior lines of therapy. The following guidance was used: • Adjuvant therapy was counted as a line of therapy if the subject progressed on or within 6 months of adjuvant therapy administration. • In locally advanced and unresectable NSCLC, disease progression on or within six months of end of prior curatively intended multimodal therapy was counted as a line of therapy.
• Active brain metastases from non-brain tumors.
Samples for biomarker analysis, e.g., to evaluate potential biomarkers that may correlate with treatment response, were collected.
For subjects with NSCLC an archival tumor sample (formalin fixed, paraffin embedded (FFPE) sample, collected within 5 years of enrollment) or pretreatment tumor biopsy (core needle or fine needle aspirates or excisional FFPE sample) was submitted prior to enrollment for central laboratory testing as well as subsequent exploratory biomarker analyses. […]
KRAS G12C mutation testing was conducted using a therascreen® KRAS RGQ PCR Kit (Qiagen). […] The mutations detected are: G12A, G12D, G12R, G12C, G12S, G12V, and G13D.
PD-L1 testing was conducted at the central labs using the Dako PharmDx 22C3 immunohistochemistry FDA-approved kit according to the instructions for use. […] All slides were reviewed and scored by a board-certified pathologist trained to score the PD-L1 IHC 22C3 pharrnDx assay.
STK11, KEAP1 , and TP53 mutation testing was conducted using the Resolution Bioscience Resolution ctDx Lung™ assay that included 24 genes (including those actionable in NSCLC). […] STK11/KEAP1/TP53 co-mutation analysis determined mutational status from baseline tissue and/or plasma samples, and mutations include nonsense, missense, frameshift, or splice site mutations and insertion/deletions predicted to be loss-of-function, and excluded variants of unknown significance. […]

C=CC(=O)N1CCN(c2nc(=O)n(-c3c(C)ccnc3C(C)C)c3nc(-c4c(O)cccc4F)c(F)cc23)[C@@H](C)C1 [sotorasib, 6-fluoro-7-(2-fluoro-6-hydroxyphenyl)-(1M)-1-[4-methyl-2-(propan-2-yl)pyridin-3--yl]-4-[(2S)-2-methyl-4-(prop-2-enoyl)piperazin-1-yl]pyrido[2,3-d]pyrimidin-2(1H)-one]
Duration of response (KM) - 25th percentile: 6.8 months | Duration of response (KM) - 75th percentile: 8.4 months | Duration of response (KM) - Max (+ for censored): 8.4 months | Duration of response (KM) - Median: 8.4 months
